Experiments:
[1] = biological target: T1, Mer (Homo sapiens, UniProt Q12866); assay: LanthaScreen Eu kinase binding assay, Mer; details: Tracer 236
T1 construct: purchased Life Technologies
T1 sequence (Q12866 21-999): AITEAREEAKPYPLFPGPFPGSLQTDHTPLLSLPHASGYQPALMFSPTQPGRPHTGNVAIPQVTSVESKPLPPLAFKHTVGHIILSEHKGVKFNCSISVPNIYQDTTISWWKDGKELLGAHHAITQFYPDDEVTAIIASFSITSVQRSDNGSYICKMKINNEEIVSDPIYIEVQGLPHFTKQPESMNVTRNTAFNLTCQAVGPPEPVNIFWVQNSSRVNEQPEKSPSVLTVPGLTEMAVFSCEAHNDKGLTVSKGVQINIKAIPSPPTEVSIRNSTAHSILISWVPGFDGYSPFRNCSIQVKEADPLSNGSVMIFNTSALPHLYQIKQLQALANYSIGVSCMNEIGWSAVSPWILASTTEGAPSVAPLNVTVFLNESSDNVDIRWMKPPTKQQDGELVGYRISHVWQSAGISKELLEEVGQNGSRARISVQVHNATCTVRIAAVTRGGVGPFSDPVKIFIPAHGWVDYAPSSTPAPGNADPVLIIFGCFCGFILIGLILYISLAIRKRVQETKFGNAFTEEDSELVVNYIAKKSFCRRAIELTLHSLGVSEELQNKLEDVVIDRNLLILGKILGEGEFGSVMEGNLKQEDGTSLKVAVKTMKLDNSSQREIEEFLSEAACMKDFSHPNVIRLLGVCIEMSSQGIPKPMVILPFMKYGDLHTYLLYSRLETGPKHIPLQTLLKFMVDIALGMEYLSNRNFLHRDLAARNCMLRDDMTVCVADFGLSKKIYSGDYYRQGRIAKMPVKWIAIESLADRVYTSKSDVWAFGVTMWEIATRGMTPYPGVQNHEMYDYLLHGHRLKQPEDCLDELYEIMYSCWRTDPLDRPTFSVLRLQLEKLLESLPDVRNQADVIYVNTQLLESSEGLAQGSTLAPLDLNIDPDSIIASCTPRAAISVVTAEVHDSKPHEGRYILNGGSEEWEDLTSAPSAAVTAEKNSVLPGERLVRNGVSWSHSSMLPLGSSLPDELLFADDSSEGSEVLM

[2] = system: Axl phosphorylation in transiently transfected HEK293T cells; assay: Cellular Axl phosphorylation assay; assay type: cell-based; details: Homo sapiens, HEK-293T; HEK293T cells transfected with Axl, 1 hour compound treatment, Phospho-Axl vs Total-Axl
In short: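 Axl-RTK was overexpressed by transfection in HEK293T cells to drive trans-autophosphorylation; cells were exposed to test compound for 1 hour. Phospho-Axl and total Axl were captured in lysates and detected by MSD electrochemiluminescence. IC50 was set between the DMSO group and the empty-vector-transfected minimum.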

[3] = biological target: T2, Met (Homo sapiens, UniProt P08581); assay: LanthaScreen Eu kinase binding assay, Met; details: Tracer 236, read-out: cMet kinase binding activity (Kd)
T2 construct: purchased Life Technologies
T2 sequence (P08581 25-1390): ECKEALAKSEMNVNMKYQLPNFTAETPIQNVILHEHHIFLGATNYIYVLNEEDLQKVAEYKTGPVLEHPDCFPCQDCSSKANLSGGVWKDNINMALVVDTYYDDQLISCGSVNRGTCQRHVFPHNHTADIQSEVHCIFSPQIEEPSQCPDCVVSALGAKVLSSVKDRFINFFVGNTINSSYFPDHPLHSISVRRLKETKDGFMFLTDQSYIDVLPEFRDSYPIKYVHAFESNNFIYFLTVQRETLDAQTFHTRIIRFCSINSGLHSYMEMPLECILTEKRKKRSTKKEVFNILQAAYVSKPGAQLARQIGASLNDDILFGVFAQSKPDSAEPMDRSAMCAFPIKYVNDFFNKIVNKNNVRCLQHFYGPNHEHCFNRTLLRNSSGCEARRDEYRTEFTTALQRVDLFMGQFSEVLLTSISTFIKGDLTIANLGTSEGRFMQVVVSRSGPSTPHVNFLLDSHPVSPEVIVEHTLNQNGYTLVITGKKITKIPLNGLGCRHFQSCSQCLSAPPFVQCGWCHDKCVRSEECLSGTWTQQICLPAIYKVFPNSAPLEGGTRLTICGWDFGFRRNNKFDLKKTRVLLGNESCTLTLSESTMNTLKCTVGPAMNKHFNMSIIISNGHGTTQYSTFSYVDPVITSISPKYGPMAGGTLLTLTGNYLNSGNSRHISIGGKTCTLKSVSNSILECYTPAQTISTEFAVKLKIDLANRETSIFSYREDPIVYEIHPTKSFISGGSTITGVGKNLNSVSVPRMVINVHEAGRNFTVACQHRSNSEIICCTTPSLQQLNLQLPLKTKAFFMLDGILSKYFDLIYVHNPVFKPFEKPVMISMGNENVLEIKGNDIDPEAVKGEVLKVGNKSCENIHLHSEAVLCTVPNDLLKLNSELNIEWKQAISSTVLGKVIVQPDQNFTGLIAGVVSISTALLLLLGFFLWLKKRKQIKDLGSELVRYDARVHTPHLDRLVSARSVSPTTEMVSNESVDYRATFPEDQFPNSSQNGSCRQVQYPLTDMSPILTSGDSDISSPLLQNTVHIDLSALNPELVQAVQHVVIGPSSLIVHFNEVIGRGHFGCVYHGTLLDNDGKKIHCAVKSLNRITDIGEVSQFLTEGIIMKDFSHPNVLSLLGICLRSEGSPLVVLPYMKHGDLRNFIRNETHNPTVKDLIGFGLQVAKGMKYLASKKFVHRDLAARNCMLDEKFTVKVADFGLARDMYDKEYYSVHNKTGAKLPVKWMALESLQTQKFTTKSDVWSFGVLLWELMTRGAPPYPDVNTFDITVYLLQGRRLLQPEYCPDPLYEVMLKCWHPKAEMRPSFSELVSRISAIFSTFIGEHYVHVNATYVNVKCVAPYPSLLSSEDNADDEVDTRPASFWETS

SMILES | Kd [1] | IC50 [2] | Kd [3]
COc1cc2nccc(Oc3ccc(NC(=O)c4nn(-c5ccc(F)cc5C(C)=O)cc4OCC4CC4)nc3)c2cc1OC [Compound 273] | < 100 nM | < 100 nM | 100 to 1000 nM
CCOc1cn(-c2cnccc2CCCN(C)C)nc1C(=O)Nc1ccc(Oc2ccnc3cc(OC)c(OC)cc23)cn1 [Compound 61] | < 100 nM | < 100 nM | < 100 nM
CCOc1cn(-c2ccn(C)c2)nc1C(=O)Nc1ccc(Oc2ccnc3cc(OC)c(OC)cc23)cn1 [Compound 56] | < 100 nM | < 100 nM | < 100 nM
CCOc1cn(CC)nc1C(=O)Nc1ccc(Oc2ccnc3cc(OC)c(OC)cc23)cn1 [Compound 27] | < 100 nM | < 100 nM | 100 to 1000 nM
COc1cc2c(Oc3ccc(NC(=O)c4nn(-c5cnc(N)nc5)cc4OCC(F)(F)F)c(F)c3)ccnc2cc1OC(C)C [Compound 243] | < 100 nM | < 100 nM | < 100 nM
CCOc1cn(-c2cnccc2CN(C)C)nc1C(=O)Nc1ccc(Oc2ccnc3cc(OC)c(OC)cc23)cn1 [Compound 73] | < 100 nM | < 100 nM | 100 to 1000 nM
CCOc1cn(-c2cnsc2)nc1C(=O)Nc1ccc(Oc2ccnc3cc(OC)c(OC)cc23)cn1 [Compound 39] | < 100 nM | < 100 nM | < 100 nM
COc1cc2nccc(Oc3ccc(NC(=O)c4nn(-c5cnc(Cl)cn5)cc4OCC(F)(F)F)nc3)c2cc1OC [Compound 236] | < 100 nM | < 100 nM | < 100 nM
CCOc1cn(-c2cnccc2CO)nc1C(=O)Nc1ccc(Oc2ccnc3cc(OC(C)C)c(OC)cc23)cc1F [Compound 231] | < 100 nM | < 100 nM | 100 to 1000 nM
CCOc1cnn(C2CCCN(C)C2)c1C(=O)Nc1ccc(Oc2ccnc3cc(OC)c(OC)cc23)cc1F (stereo not drawn) [Compound 213] | 100 to 1000 nM | 100 to 1000 nM | ≥ 1000 nM
COc1cc2nccc(Oc3ccc(NC(=O)c4nn(-c5ccc(F)c(C(C)=O)c5)cc4OCC4CC4)nc3)c2cc1OC [Compound 274] | < 100 nM | < 100 nM | < 100 nM
COc1cc2nccc(Oc3ccc(NC(=O)c4nn(-c5cnc(N)cn5)cc4OCC4CC4)nc3)c2cc1OC [Compound 249] | < 100 nM | < 100 nM | < 100 nM
COc1cc2nccc(Oc3ccc(NC(=O)c4nn(-c5cnc(N)nc5)cc4OCC(F)(F)F)nc3)c2cc1OC [Compound 237] | < 100 nM | < 100 nM | < 100 nM
CCOc1cn(-c2cnc(N)nc2)nc1C(=O)Nc1ccc(Oc2ccnc3cc(OC)c(OC(F)(F)F)cc23)cc1F [Compound 242] | ≥ 1000 nM | 100 to 1000 nM | ≥ 1000 nM
COc1cc2nccc(Oc3ccc(NC(=O)c4nn(-c5ccc(F)cc5C5CCCC5)cc4OCC4CC4)nc3)c2cc1OC [Compound 270] | 100 to 1000 nM | < 100 nM | 100 to 1000 nM
CCOc1cn(-c2ccc(OC)cc2)nc1C(=O)Nc1ccc(Oc2ccnc3cc(OC)c(OC)cc23)cn1 [Compound 1] | < 100 nM | < 100 nM | < 100 nM
CCOc1cn(-c2ccc(N(C)C)cc2Cl)nc1C(=O)Nc1ccc(Oc2ccnc3cc(OC)c(OC)cc23)cn1 [Compound 31] | < 100 nM | < 100 nM | 100 to 1000 nM
COc1cc2nccc(Oc3ccc(NC(=O)c4nn(-c5ccc(F)cc5C)cc4OCC4CC4)nc3)c2cc1OC [Compound 258] | < 100 nM | < 100 nM | < 100 nM
CCOc1cn(-c2cnccc2C(C)(O)CO)nc1C(=O)Nc1ccc(Oc2ccnc3cc(OC)c(OC)cc23)cc1F (stereo not drawn) [Compound 227] | < 100 nM | < 100 nM | < 100 nM
COc1cc2nccc(Oc3ccc(NC(=O)c4nn(-c5cnc(N)nc5)cc4OCC4CCC4)nc3)c2cc1OC [Compound 262] | < 100 nM | < 100 nM | < 100 nM
COc1cc2nccc(Oc3ccc(NC(=O)c4nn(-c5cnc(N)cn5)cc4OCC(F)(F)F)c(F)c3)c2cc1OC [Compound 252] | < 100 nM | < 100 nM | ≥ 1000 nM
COc1cc2nccc(Oc3ccc(NC(=O)c4nn(-c5ccc(OC(F)(F)F)cc5Cl)cc4OCC4CC4)nc3)c2cc1OC [Compound 244] | < 100 nM | < 100 nM | < 100 nM

SMILES | Kd [1] | IC50 [2] | Kd [3]
CCOc1cn(-c2cnccc2CO)nc1C(=O)Nc1ccc(Oc2ccnc3cc(OC)c(OC(F)(F)F)cc23)cn1 [Compound 233] | < 100 nM | < 100 nM | ≥ 1000 nM
CCOc1cnn(-c2ccsc2)c1C(=O)Nc1ccc(Oc2ccnc3cc(OC)c(OC)cc23)cn1 [Compound 21] | 100 to 1000 nM | < 100 nM | 100 to 1000 nM
COc1cc2nccc(Oc3ccc(NC(=O)c4nn(-c5cncnc5C5CC5)cc4OCC(F)(F)F)nc3)c2cc1OC [Compound 261] | < 100 nM | < 100 nM | < 100 nM
CCOc1cn(C)nc1C(=O)Nc1ccc(Oc2ccnc3cc(OC)c(OC)cc23)cn1 [Compound 29] | < 100 nM | 100 to 1000 nM | 100 to 1000 nM
CCOc1cn(-c2ccnnc2)nc1C(=O)Nc1ccc(Oc2ccnc3cc(OC)c(OC)cc23)cn1 [Compound 40] | < 100 nM | 100 to 1000 nM | < 100 nM
CCOc1cn(-c2cnc(N)nc2)nc1C(=O)Nc1ccc(Oc2ccnc3cc(OC)c(OC(F)(F)F)cc23)cn1 [Compound 241] | < 100 nM | < 100 nM | ≥ 1000 nM
COc1cc2c(Oc3ccc(NC(=O)c4nn(-c5cnc(N)cn5)cc4OCC(F)(F)F)c(F)c3)ccnc2cc1OC(C)C [Compound 246] | < 100 nM | < 100 nM | ≥ 1000 nM
COc1cc2nccc(Oc3ccc(NC(=O)c4nn(-c5cnc(N)nc5)cc4OCC(F)(F)F)c(F)c3)c2cc1OC [Compound 259] | < 100 nM | < 100 nM | < 100 nM
CCOc1cn(-c2ccncc2Cl)nc1C(=O)Nc1ccc(Oc2ccnc3cc(OC)c(OC)cc23)cn1 [Compound 26] | < 100 nM | < 100 nM | < 100 nM
CCOc1cn(-c2cc[nH]c2)nc1C(=O)Nc1ccc(Oc2ccnc3cc(OC)c(OC)cc23)cn1 [Compound 32] | < 100 nM | < 100 nM | 100 to 1000 nM
CCOc1cn(C(C)(C)C(=O)NC)nc1C(=O)Nc1ccc(Oc2ccnc3cc(OC)c(OC)cc23)cn1 [Compound 68] | < 100 nM | < 100 nM | 100 to 1000 nM
CCOc1cn(-c2ccoc2)nc1C(=O)Nc1ccc(Oc2ccnc3cc(OC)c(OC)cc23)cn1 [Compound 33] | < 100 nM | < 100 nM | < 100 nM
CCOc1cn(CCOC)nc1C(=O)Nc1ccc(Oc2ccnc3cc(OC)c(OC)cc23)cn1 [Compound 64] | < 100 nM | < 100 nM | < 100 nM
CCOc1cn(-c2ccncc2C)nc1C(=O)Nc1ccc(Oc2ccnc3cc(OC)c(OC)cc23)cn1 [Compound 34] | < 100 nM | < 100 nM | < 100 nM
CCOc1cn(CC(C)=O)nc1C(=O)Nc1ccc(Oc2ccnc3cc(OC)c(OC)cc23)cn1 [Compound 66] | < 100 nM | < 100 nM | 100 to 1000 nM
COc1cc2nccc(Oc3ccc(NC(=O)c4nn(-c5cnc(N)nc5)cc4OCC4CC4)nc3)c2cc1OC [Compound 240] | < 100 nM | < 100 nM | < 100 nM
CCOc1cn(C2CCCN(C(C)=O)C2)nc1C(=O)Nc1ccc(Oc2ccnc3cc(OC)c(OC)cc23)cc1F (stereo not drawn) [Compound 224] | < 100 nM | < 100 nM | 100 to 1000 nM
COc1cc2nccc(Oc3ccc(NC(=O)c4nn(-c5ccc(F)cc5F)cc4OCC4CC4)nc3)c2cc1OC [Compound 267] | < 100 nM | < 100 nM | < 100 nM
CCOc1cn(-c2ncco2)nc1C(=O)Nc1ccc(Oc2ccnc3cc(OC)c(OC)cc23)cn1 [Compound 59] | < 100 nM | < 100 nM | < 100 nM
COc1cc2nccc(Oc3ccc(NC(=O)c4nn(-c5cnc(N)nc5)cc4OCC4COC4)nc3)c2cc1OC [Compound 269] | < 100 nM | < 100 nM | 100 to 1000 nM
CCC(C)Oc1cc2nccc(Oc3ccc(NC(=O)c4nn(-c5cccnc5)cc4OCC(F)(F)F)nc3)c2cc1OC (stereo not drawn) [Compound 234] | < 100 nM | < 100 nM | 100 to 1000 nM

Reference: patent publication US10934274B2, “Quinoline derivatives as TAM RTK inhibitors” (Qurient Co., Ltd., priority 2015, dated 2021)
